The values that follow come from patent US10912774B2, “Pyrimidine FGFR4 inhibitors” (priority 2013, dated 2021).

For this data set, the system named is HEP3B tumor xenografts. Type of data set: in vivo.
The mark [1] stands for this setting: Hep3B xenograft, 60 mg/kg orally twice daily.

SMILES strings stand for the structures.

For `CCN1CCN(c2ccc(Nc3cc(N(C)C(=O)Nc4c(Cl)c(OC)cc(OC)c4Cl)ncn3)cc2)CC1` [BGJ398], under setting [1], the “efficacy compared with compound 108” value is on record as “efficacy comparable to compound 108” and the “tolerability (health of animals)” value is recorded as “had to be terminated on Day 11 due to poor health of animals”.

`C=CC(=O)Nc1cc(N2CCN(CC)CC2)ccc1Nc1cc(N(C)C(=O)Nc2c(Cl)c(OC)cc(OC)c2Cl)ncn1` [Compound 108, N-(2-(6-(3-(2,6-Dichloro-3,5-dimethoxyphenyl)-1-methylureido)pyrimidin-4-ylamino)-5-(4-ethylpiperazin-1-yl)-phenyl)acrylamide]: the “efficacy compared with BGJ398” value (Hep3B xenograft, 25, 37.5 or 50 mg/kg i.p. twice daily) was “more efficacious than BGJ398 at tolerable dosage levels”.
